# Test results taken from paper PMC5218480 (PLoS ONE, 2017).
# System: MV-4-11 cells
# Assay: Gene expression microarray analysis (Affymetrix PrimeView) and GSEA
# Assay type: cell-based, human
# Design: RFU PODN (11730768_x_at) / Fold change /veh PODN (11730768_x_at) / RFU LINC00158 (11744669_a_at) / Fold change /veh LINC00158 (11744669_a_at) / RFU DUSP10 (11751237_a_at) / Fold change /veh DUSP10 (11751237_a_at) / RFU ID3 (11757404_x_at) / Fold change /veh ID3 (11757404_x_at) / RFU PLEKHG5 (11737974_s_at) / Fold change /veh PLEKHG5 (11737974_s_at) / RFU LRRC4B (11730491_at) / Fold change /veh LRRC4B (11730491_at) / RFU GIMAP4 (11747438_a_at) / Fold change /veh GIMAP4 (11747438_a_at) / RFU KRT8 (11758183_x_at) / Fold change /veh KRT8 (11758183_x_at) / RFU CNN1 (11734310_a_at) / Fold change /veh CNN1 (11734310_a_at) / RFU VPS37D (11726825_at) / Fold change /veh VPS37D (11726825_at) / RFU C10orf10 (11716522_x_at) / Fold change /veh C10orf10 (11716522_x_at) / RFU KIR2DL2 /// KIR2DL4 /// KIR2DL5A /// KIR2DL5B /// KIR2DS1 /// KIR2DS2 /// KIR2DS3 /// KIR2DS4 /// KIR3DL3 /// KIR3DL3 /// KIR3DS1 (11738374_at) / Fold change /veh KIR2DL2 /// KIR2DL4 /// KIR2DL5A /// KIR2DL5B /// KIR2DS1 /// KIR2DS2 /// KIR2DS3 /// KIR2DS4 /// KIR3DL3 /// KIR3DL3 /// KIR3DS1 (11738374_at) / RFU C1QL1 (11718748_at) / Fold change /veh C1QL1 (11718748_at) / RFU TMPRSS4 (11747572_a_at) / Fold change /veh TMPRSS4 (11747572_a_at) / RFU HAMP (11756126_x_at) / Fold change /veh HAMP (11756126_x_at) / RFU RNFT2 (11725882_a_at) / Fold change /veh RNFT2 (11725882_a_at) / RFU NR4A2 (11747474_a_at) / Fold change /veh NR4A2 (11747474_a_at) / RFU ABCC12 (11746883_a_at) / Fold change /veh ABCC12 (11746883_a_at) / RFU TMEM136 (11760407_x_at) / Fold change /veh TMEM136 (11760407_x_at) / RFU CLDN22 /// WWC2 (11732394_at) / Fold change /veh CLDN22 /// WWC2 (11732394_at) / RFU HLA-DPB1 (11760878_x_at) / Fold change /veh HLA-DPB1 (11760878_x_at) / RFU SPINT1 (11716480_a_at) / Fold change /veh SPINT1 (11716480_a_at) / RFU GAP43 (11754022_s_at) / Fold change /veh GAP43 (11754022_s_at) / RFU A4GNT (11735810_at) / Fold change /veh A4GNT (11735810_at) / RFU PRB3 (11715151_x_at) / Fold change /veh PRB3 (11715151_x_at) / RFU TUBB4B (11761932_at) / Fold change /veh TUBB4B (11761932_at) / RFU CAPN14 (11732068_a_at) / Fold change /veh CAPN14 (11732068_a_at) / RFU TMCC2 (11721928_a_at) / Fold change /veh TMCC2 (11721928_a_at) / RFU IRGQ (11745062_a_at) / Fold change /veh IRGQ (11745062_a_at) / RFU FAM174B (11720279_a_at) / Fold change /veh FAM174B (11720279_a_at) / RFU TMPRSS4 (11748680_a_at) / Fold change /veh TMPRSS4 (11748680_a_at) / RFU FAM212B (11763350_a_at) / Fold change /veh FAM212B (11763350_a_at) / RFU PLEKHG5 (11743358_a_at) / Fold change /veh PLEKHG5 (11743358_a_at) / RFU ZSCAN30 (11745921_a_at) / Fold change /veh ZSCAN30 (11745921_a_at) / RFU CMKLR1 (11741424_a_at) / Fold change /veh CMKLR1 (11741424_a_at) / RFU LOC101060620 /// MAPK8IP1 (11723275_at) / Fold change /veh LOC101060620 /// MAPK8IP1 (11723275_at) / RFU SPTSSB (11747773_x_at) / Fold change /veh SPTSSB (11747773_x_at) / RFU PRSS12 (11739890_at) / Fold change /veh PRSS12 (11739890_at) / RFU BIN1 (11741810_x_at) / Fold change /veh BIN1 (11741810_x_at) / RFU WNT11 (11732464_a_at) / Fold change /veh WNT11 (11732464_a_at) / RFU C10orf10 (11716521_a_at) / Fold change /veh C10orf10 (11716521_a_at) / RFU C5orf56 (11738089_at) / Fold change /veh C5orf56 (11738089_at) / RFU CYB561 (11721691_x_at) / Fold change /veh CYB561 (11721691_x_at) / RFU ANKRD19P (11752326_a_at) / Fold change /veh ANKRD19P (11752326_a_at) / RFU OR2T12 /// OR2T33 /// OR2T8 (11738714_s_at) / Fold change /veh OR2T12 /// OR2T33 /// OR2T8 (11738714_s_at) / RFU VCAN (11748164_a_at) / Fold change /veh VCAN (11748164_a_at) / RFU JSRP1 (11732532_at) / Fold change /veh JSRP1 (11732532_at) / RFU KRTAP10-11 (11738290_x_at) / Fold change /veh KRTAP10-11 (11738290_x_at) / RFU MYO3A (11730013_a_at) / Fold change /veh MYO3A (11730013_a_at) / RFU EBF3 (11725865_a_at) / Fold change /veh EBF3 (11725865_a_at) / RFU CAMK2N1 (11719241_x_at) / Fold change /veh CAMK2N1 (11719241_x_at) / RFU C5orf56 (11738088_a_at) / Fold change /veh C5orf56 (11738088_a_at) / RFU OLFML3 (11715873_a_at) / Fold change /veh OLFML3 (11715873_a_at) / RFU LOC100653217 /// NTM (11731650_a_at) / Fold change /veh LOC100653217 /// NTM (11731650_a_at) / RFU MAPK11 (11762145_a_at) / Fold change /veh MAPK11 (11762145_a_at) / RFU FIZ1 (11724087_x_at) / Fold change /veh FIZ1 (11724087_x_at) / RFU OASL (11726364_x_at) / Fold change /veh OASL (11726364_x_at) / RFU SOX15 (11748057_x_at) / Fold change /veh SOX15 (11748057_x_at) / RFU CD79A (11719716_a_at) / Fold change /veh CD79A (11719716_a_at) / RFU HIST1H1D (11736915_at) / Fold change /veh HIST1H1D (11736915_at) / RFU CASKIN2 (11723855_a_at) / Fold change /veh CASKIN2 (11723855_a_at) / RFU LOC730098 (11760151_x_at) / Fold change /veh LOC730098 (11760151_x_at) / RFU OR4N2 (11742367_at) / Fold change /veh OR4N2 (11742367_at) / RFU PRRT2 (11749266_a_at) / Fold change /veh PRRT2 (11749266_a_at) / RFU SNX32 (11753110_a_at) / Fold change /veh SNX32 (11753110_a_at) / RFU CDHR5 (11726645_a_at) / Fold change /veh CDHR5 (11726645_a_at) / RFU RCAN1 (11760418_a_at) / Fold change /veh RCAN1 (11760418_a_at) / RFU FAM167A (11723789_a_at) / Fold change /veh FAM167A (11723789_a_at) / RFU FAM26E (11764081_at) / Fold change /veh FAM26E (11764081_at) / RFU ISYNA1 (11749810_s_at) / Fold change /veh ISYNA1 (11749810_s_at) / RFU ACY1 (11761880_at) / Fold change /veh ACY1 (11761880_at) / RFU 11764098_at / Fold change /veh 11764098_at / RFU SAMD14 (11745864_x_at) / Fold change /veh SAMD14 (11745864_x_at) / RFU NPB (11741838_a_at) / Fold change /veh NPB (11741838_a_at) / RFU TMPRSS6 (11731388_a_at) / Fold change /veh TMPRSS6 (11731388_a_at) / RFU KRTAP10-2 (11738614_at) / Fold change /veh KRTAP10-2 (11738614_at) / RFU ARHGAP8 /// PRR5-ARHGAP8 (11727945_x_at) / Fold change /veh ARHGAP8 /// PRR5-ARHGAP8 (11727945_x_at) / RFU KRTAP5-7 /// NADSYN1 (11734609_at) / Fold change /veh KRTAP5-7 /// NADSYN1 (11734609_at) / RFU RASL12 (11751679_a_at) / Fold change /veh RASL12 (11751679_a_at) / RFU CDKN2B (11736163_a_at) / Fold change /veh CDKN2B (11736163_a_at) / RFU PRF1 (11729649_at) / Fold change /veh PRF1 (11729649_at) / RFU, ZNF638 /// ZNF638-IT1 / Fold change vs veh, ZNF638 /// ZNF638-IT1 / RFU, PANK3 / Fold change vs veh, PANK3 / RFU, SH3YL1 / Fold change vs veh, SH3YL1 / RFU, ZEB2 / Fold change vs veh, ZEB2 / RFU, NRIP1 / Fold change vs veh, NRIP1 / RFU, PTTG1IP / Fold change vs veh, PTTG1IP / RFU, CAPN2 / Fold change vs veh, CAPN2 / RFU, MED14 / Fold change vs veh, MED14 / RFU, SNORA58 / Fold change vs veh, SNORA58 / RFU, C1orf63 / Fold change vs veh, C1orf63 / RFU, LRRFIP1 / Fold change vs veh, LRRFIP1 / RFU, NDUFAF7 / Fold change vs veh, NDUFAF7 / RFU, SLC12A2 / Fold change vs veh, SLC12A2 / RFU, IBTK / Fold change vs veh, IBTK / RFU, ESF1 / Fold change vs veh, ESF1 / Fold change vs veh, TMEM50B / RFU, TAOK1 / Fold change vs veh, TAOK1 / RFU, ACBD3 / Fold change vs veh, ACBD3 / RFU, TMA16 / Fold change vs veh, TMA16 / RFU, RWDD3 / Fold change vs veh, RWDD3 / RFU, BCAT1 / Fold change vs veh, BCAT1 / RFU, EDEM3 / Fold change vs veh, EDEM3 / RFU, TMEM33 / Fold change vs veh, TMEM33 / RFU, WDR75 / Fold change vs veh, WDR75 / RFU, AHCTF1 / Fold change vs veh, AHCTF1 / RFU, TFRC / Fold change vs veh, TFRC / RFU, ZDHHC17 / Fold change vs veh, ZDHHC17 / RFU, NOM1 / Fold change vs veh, NOM1 / RFU, ARL8B / Fold change vs veh, ARL8B / RFU, ZBTB11 / Fold change vs veh, ZBTB11 / RFU, TAMM41 / Fold change vs veh, TAMM41 / RFU, KIAA1704 /// LOC100996395 / Fold change vs veh, KIAA1704 /// LOC100996395 / RFU, ING1 / Fold change vs veh, ING1 / RFU, TRMT61B / Fold change vs veh, TRMT61B / RFU, FUBP3 / Fold change vs veh, FUBP3 / RFU, TP53 / Fold change vs veh, TP53 / RFU, TNKS2 / Fold change vs veh, TNKS2 / RFU, ZFP14 / Fold change vs veh, ZFP14 / RFU, ACTR2 / Fold change vs veh, ACTR2 / RFU, PPP3R1 / Fold change vs veh, PPP3R1 / RFU, PIK3R1 / Fold change vs veh, PIK3R1 / RFU, HNRNPA1 / Fold change vs veh, HNRNPA1 / RFU, RNF170 / Fold change vs veh, RNF170 / RFU, ZNF28 / Fold change vs veh, ZNF28 / RFU, RNGTT / Fold change vs veh, RNGTT / RFU, OGT / Fold change vs veh, OGT / RFU, BRD1 / Fold change vs veh, BRD1 / RFU, MARS / Fold change vs veh, MARS / RFU, ZNF655 / Fold change vs veh, ZNF655 / RFU, FAHD1 / Fold change vs veh, FAHD1 / RFU, BDP1 / Fold change vs veh, BDP1 / RFU, LRRCC1 / Fold change vs veh, LRRCC1 / RFU, ARID1A / Fold change vs veh, ARID1A / RFU, ZNF146 / Fold change vs veh, ZNF146 / RFU, ZNF330 / Fold change vs veh, ZNF330 / RFU, GPN3 / Fold change vs veh, GPN3 / RFU, C9orf123 / Fold change vs veh, C9orf123 / RFU, N4BP2L2 / Fold change vs veh, N4BP2L2 / RFU, ARFIP1 / Fold change vs veh, ARFIP1 / RFU, FAM179B / Fold change vs veh, FAM179B / RFU, BCL10 / Fold change vs veh, BCL10 / RFU, UHRF1BP1L / Fold change vs veh, UHRF1BP1L / RFU, BET1 / Fold change vs veh, BET1 / RFU, CNOT2 / Fold change vs veh, CNOT2 / RFU, ZNF268 / Fold change vs veh, ZNF268 / Fold change vs veh, ZNF507 / RFU, DGCR2 / Fold change vs veh, DGCR2 / RFU, WDSUB1 / Fold change vs veh, WDSUB1 / Fold change vs veh, HSP90B1 /// MIR3652 / RFU, ADSS / Fold change vs veh, ADSS / RFU, GK / Fold change vs veh, GK / RFU, ZNF148 / Fold change vs veh, ZNF148 / RFU, TAF9 / Fold change vs veh, TAF9 / RFU, SLC1A5 / Fold change vs veh, SLC1A5 / RFU, SLMO2 / Fold change vs veh, SLMO2 / RFU, ABCC4 / Fold change vs veh, ABCC4 / RFU, LOC101060439 /// RAP1B / Fold change vs veh, LOC101060439 /// RAP1B / RFU, RFX7 / Fold change vs veh, RFX7 / RFU, GTPBP10 / Fold change vs veh, GTPBP10 / RFU, CNEP1R1 / Fold change vs veh, CNEP1R1 / RFU, BIVM-ERCC5 /// ERCC5 / Fold change vs veh, BIVM-ERCC5 /// ERCC5 / RFU, ILF3 / Fold change vs veh, ILF3 / RFU 11762660_at / Fold change /veh 11762660_at / RFU VCAN (11757783_s_at) / Fold change /veh VCAN (11757783_s_at) / RFU DDX43 (11728927_at) / Fold change /veh DDX43 (11728927_at) / RFU KRT8 (11758188_x_at) / Fold change /veh KRT8 (11758188_x_at) / RFU NKD1 (11759106_at) / Fold change /veh NKD1 (11759106_at) / RFU SRD5A1 (11742802_a_at) / Fold change /veh SRD5A1 (11742802_a_at) / RFU TPSAB1 /// TPSB2 (11721975_s_at) / Fold change /veh TPSAB1 /// TPSB2 (11721975_s_at) / RFU GSTM3 (11746129_a_at) / Fold change /veh GSTM3 (11746129_a_at) / RFU IL23R (11737362_x_at) / Fold change /veh IL23R (11737362_x_at) / RFU TMEM51 (11727254_a_at) / Fold change /veh TMEM51 (11727254_a_at) / RFU PIWIL2 (11732686_x_at) / Fold change /veh PIWIL2 (11732686_x_at) / RFU ORM1 (11744905_x_at) / Fold change /veh ORM1 (11744905_x_at) / RFU CCDC152 (11743942_at) / Fold change /veh CCDC152 (11743942_at) / RFU ECM1 (11717891_a_at) / Fold change /veh ECM1 (11717891_a_at) / RFU IL23R (11748794_a_at) / Fold change /veh IL23R (11748794_a_at) / RFU TNFAIP8L3 (11732012_x_at) / Fold change /veh TNFAIP8L3 (11732012_x_at) / RFU MBOAT4 (11741988_at) / Fold change /veh MBOAT4 (11741988_at) / RFU 11764193_at / Fold change /veh 11764193_at / RFU TMEM53 (11763286_at) / Fold change /veh TMEM53 (11763286_at) / RFU MAGEB2 (11727129_at) / Fold change /veh MAGEB2 (11727129_at) / RFU TMEM200A (11744735_a_at) / Fold change /veh TMEM200A (11744735_a_at) / RFU CCDC152 (11751479_a_at) / Fold change /veh CCDC152 (11751479_a_at) / RFU FAM211A (11726209_a_at) / Fold change /veh FAM211A (11726209_a_at) / RFU RGS16 (11746705_a_at) / Fold change /veh RGS16 (11746705_a_at) / RFU VCAN (11755009_s_at) / Fold change /veh VCAN (11755009_s_at) / RFU RHOB (11743442_s_at) / Fold change /veh RHOB (11743442_s_at) / RFU RGS16 (11720943_a_at) / Fold change /veh RGS16 (11720943_a_at) / RFU RGS16 (11720944_at) / Fold change /veh RGS16 (11720944_at) / RFU, VPS4B / Fold change vs veh, VPS4B / RFU, CREB1 / Fold change vs veh, CREB1 / RFU, DNAJC13 / Fold change vs veh, DNAJC13 / RFU, GNAQ / Fold change vs veh, GNAQ / RFU, CDK5R1 / Fold change vs veh, CDK5R1 / RFU, ZRANB3 / Fold change vs veh, ZRANB3 / RFU, CUL4A / Fold change vs veh, CUL4A / RFU, CCNY / Fold change vs veh, CCNY / RFU, UFL1 / Fold change vs veh, UFL1 / RFU, COG3 / Fold change vs veh, COG3 / RFU, DIAPH2 / Fold change vs veh, DIAPH2 / RFU, SKA2 / Fold change vs veh, SKA2 / RFU, AFF3 / Fold change vs veh, AFF3 / RFU, LMF1 / Fold change vs veh, LMF1 / RFU, IPO11 / Fold change vs veh, IPO11 / RFU, DFFB / Fold change vs veh, DFFB / RFU, FOXP1 / Fold change vs veh, FOXP1 / RFU, CARD8 / Fold change vs veh, CARD8 / RFU, STRN3 / Fold change vs veh, STRN3 / RFU, ADK / Fold change vs veh, ADK / RFU, RASSF2 / Fold change vs veh, RASSF2 / RFU, WIPF1 / Fold change vs veh, WIPF1 / RFU, LARP1B / Fold change vs veh, LARP1B / RFU, RASA1 / Fold change vs veh, RASA1 / RFU, RB1 / Fold change vs veh, RB1 / RFU, PPFIA1 / Fold change vs veh, PPFIA1 / RFU, MAT2A / Fold change vs veh, MAT2A / RFU, CCT5 / Fold change vs veh, CCT5 / RFU, WDR92 / Fold change vs veh, WDR92 / RFU, CUX1 / Fold change vs veh, CUX1 / RFU, TTC7A / Fold change vs veh, TTC7A / RFU, TMEM135 / Fold change vs veh, TMEM135 / RFU, DEPTOR / Fold change vs veh, DEPTOR / RFU, CPM / Fold change vs veh, CPM / RFU, DNAJB6 / Fold change vs veh, DNAJB6 / RFU, CACNA2D3 / Fold change vs veh, CACNA2D3 / RFU, DTX4 / Fold change vs veh, DTX4 / RFU, TFCP2 / Fold change vs veh, TFCP2 / RFU, GMCL1 /// GMCL1P1 / Fold change vs veh, GMCL1 /// GMCL1P1 / RFU, AEBP2 / Fold change vs veh, AEBP2 / RFU, SNHG1 /// SNORD22 /// SNORD25 /// SNORD26 /// SNORD27 /// SNORD28 /// SNORD29 /// SNORD31 / Fold change vs veh, SNHG1 /// SNORD22 /// SNORD25 /// SNORD26 /// SNORD27 /// SNORD28 /// SNORD29 /// SNORD31 / Fold change (Aza/veh), C12orf56 (ProbeSet 11735607_a_at) / Fold change (ACY-1035/veh), C12orf56 (ProbeSet 11735607_a_at) / Fold change (Aza/veh), FGFR1OP (ProbeSet 11751329_s_at) / Fold change (ACY-1035/veh), FGFR1OP (ProbeSet 11751329_s_at) / Fold change (Aza/veh), VPS36 (ProbeSet 11739960_a_at) / Fold change (ACY-1035/veh), VPS36 (ProbeSet 11739960_a_at) / RFU SYPL1 (11715823_x_at) / Fold change /veh SYPL1 (11715823_x_at) / RFU IGFBP7 (11715501_s_at) / Fold change /veh IGFBP7 (11715501_s_at) / RFU REEP3 (11722064_at) / Fold change /veh REEP3 (11722064_at) / RFU IGLL1 (11728026_x_at) / Fold change /veh IGLL1 (11728026_x_at): dose or concentration left out as unconfirmed
# Conditions: MV-4-11 cells, 48 hours
smiles,measurement,value
Nc1ccc(-c2cccs2)cc1NC(=O)c1ccc2c(c1)cc(C1CC1)n2CCN1CCOCC1 [ACY-1035],Fold change /veh CMKLR1 (11741424_a_at),1.11
